Experimental data reported in patent US20250154142A1, “THIADIAZOLE-SUBSTITUTED COMPOUND, PHARMACEUTICAL COMPOSITIONS THEREOF, AND APPLICATIONS THEREOF” (Shanghai Yingli Pharmaceutical Co., Ltd., priority 2023, published 2025).

Experiments:
[1] = target: T1, PARG (389-976) (Homo sapiens, UniProt Q86W56); test: PARG enzyme inhibition assay (TR-FRET); type: biochemical; conditions: Bio PARylated His-TEV-PARP1 substrate
T1 construct: 5 μL of PARG (389-976) (manufactured by Chempartner Chemical Co., Ltd.); purchased Chempartner Chemical Co., Ltd
Experimental: PARG in vitro assays were conducted in standard 384-well plates in a total volume of 15 μL. 5 μL of PARG (389-976) (manufactured by Chempartner Chemical Co., Ltd.) in buffer (50 mM Tris-HCL 7.5, 30 mM KCl, 1 mM EDTA, 3 mM DTT, tween-20 0.01%, BSA 0.025%) was added at a final concentration of 1.5 pM to the 384-well plates containing the compounds to be tested, which was incubated for 30 min at room temperature. To the above mixture was added 5 μL Bio PARylated His-TEV-PARP1 (2-1014) substrate (manufactured by Chempartner Chemical Co., Ltd.) at a final concentration of 12 nM, after addition, the resulting mixture was incubated for 30 minutes at room temperature. Then to the mixture was added detection reagent (5 μL) which was buffered with 50 mM Tris-HCL 7.5, 30 mM KCl, 1 mM EDTA, 3 mM DTT, tween-20 0.01%, BSA 0.025%, and consisted of 3 μM of compound PDD00017273 and 9 nM Mab anti-6HIS XL665 (Cisbio: 61HISXLA) and 0.9 nM streptavidin affinity terbium cryptate (Cisbio: 610SATLA), all at 3× working concentrations (final concentrations of […], 3 nM and 0.3 nM, respectively). After 120 min incubation in the dark at room temperature, TR-FRET signals were measured at Ex 340 and Em 665 and Em 615. The ratio for each well was calculated as Em 665/Em 615 and the compound inhibition rate was calculated based on the obtained data.

[2] = Pharmacokinetic studies in mice after intravenous and oral administration; type: in vivo; conditions: mouse, male CD-1 mice, plasma
Experimental: After intravenous and oral administration to male C57BL/6J mice or male CD-1 mice, plasma samples were collected through the orbital venous plexus at 8-9 time points (e.g., 5 min, 15 min, 30 min, 1 h, 2 h, 4 h, 7 h, 24 h or 5 min, 15 min, 30 min, 1 h, 2 h, 4 h, 6 h, 8 h, 24 h). The collected blood samples were transferred to microcentrifuge tubes containing EDTA-K2 anticoagulant, and the […] were centrifuged for 5 min at 4° C. and 4000 g. The supernatants were stored in a refrigerator at −75° C.±15° C. The concentrations of the compounds in the plasma at the different time points were detected by LC-MS/MS and the relevant pharmacokinetic parameters were calculated using the WinNonlin software

T1 sequence (Q86W56 389-976): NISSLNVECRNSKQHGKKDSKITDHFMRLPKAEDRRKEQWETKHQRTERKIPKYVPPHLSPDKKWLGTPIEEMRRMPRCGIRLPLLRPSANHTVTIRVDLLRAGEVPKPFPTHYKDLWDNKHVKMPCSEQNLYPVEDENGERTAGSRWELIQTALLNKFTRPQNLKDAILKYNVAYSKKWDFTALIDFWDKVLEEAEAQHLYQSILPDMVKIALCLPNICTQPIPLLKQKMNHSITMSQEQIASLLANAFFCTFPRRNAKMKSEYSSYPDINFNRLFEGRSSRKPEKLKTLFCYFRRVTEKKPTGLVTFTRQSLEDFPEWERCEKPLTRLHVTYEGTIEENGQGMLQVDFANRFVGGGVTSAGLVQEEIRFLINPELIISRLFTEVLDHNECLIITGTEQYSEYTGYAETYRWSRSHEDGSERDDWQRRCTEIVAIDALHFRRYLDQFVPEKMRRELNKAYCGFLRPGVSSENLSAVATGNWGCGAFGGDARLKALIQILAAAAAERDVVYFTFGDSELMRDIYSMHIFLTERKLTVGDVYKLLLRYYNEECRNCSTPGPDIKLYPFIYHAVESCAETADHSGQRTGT

SMILES | IC50 ([1]; class symbol) [nM] | IC50 ([1]; numeric value) [nM] | AUC(0-inf) ([2]; intravenous 5 mg/kg) [ng·h/mL] | AUC(0-t) ([2]; intravenous 5 mg/kg) [ng·h/mL] | clearance ([2]; intravenous 5 mg/kg) [mL/min/kg] | AUC(0-inf) ([2]; oral administration 10 mg/kg) [ng·h/mL] | AUC(0-t) ([2]; oral administration 10 mg/kg) [ng·h/mL] | Cmax ([2]; oral administration 10 mg/kg) [ng/mL]
C[C@H]1CN(c2cc(S(=O)(=O)NC3(C)CC3)cc3c2cnn3-c2nnc(C(F)(F)F)s2)C[C@H](C)N1 [Compound 1] | < 2 | 0.2 | 3700 | 2540 | 22.5 | 2980 | 2610 | 175
C[C@H]1CN(c2cc(S(=O)(=O)NC3(C)CC3)cc3c2cnn3-c2nnc(C(F)F)s2)C[C@H](C)N1 [Compound 1′, reference compound] | < 2 | 0.21 | 939 | 905 | 89.5 | 929 | 725 | 98.8
C[C@H]1CN(c2cc(S(=O)(=O)NC3(C#N)CC3)cc3c2cnn3-c2nnc(C(F)(F)F)s2)C[C@H](C)N1 [Compound 2] | < 2 | 0.62 |  |  |  |  |  | 

Results, then the molecule that gave them:

IC50 ([1]; class symbol) [nM] | IC50 ([1]; numeric value) [nM] | AUC(0-inf) ([2]; intravenous 5 mg/kg) [ng·h/mL] | AUC(0-t) ([2]; intravenous 5 mg/kg) [ng·h/mL] | clearance ([2]; intravenous 5 mg/kg) [mL/min/kg] | AUC(0-inf) ([2]; oral administration 10 mg/kg) [ng·h/mL] | AUC(0-t) ([2]; oral administration 10 mg/kg) [ng·h/mL] | Cmax ([2]; oral administration 10 mg/kg) [ng/mL] | SMILES
 |  | 2420 | 2410 | 34.8 | 4080 | 4070 | 513 | C[C@H]1CN(c2c(F)c(S(=O)(=O)NC3(C#N)CC3)cc3c2cnn3-c2nnc(C(F)(F)F)s2)C[C@H](C)N1 [Compound 3]
< 2 |  | 2350 | 1990 | 35.6 | 3970 | 3260 | 198 | C[C@H]1CN(c2c(F)c(S(=O)(=O)NC3(C)CC3)cc3c2cnn3-c2nnc(C(F)(F)F)s2)C[C@H](C)N1 [Compound 4]
< 2 |  | 1620 | 1600 | 51.6 | 2000 | 1970 | 172 | C[C@H]1CN(c2c(F)c(S(=O)(=O)NC3(C)CC3)cc3c2cnn3-c2nnc(C(F)F)s2)C[C@H](C)N1 [Compound 5]
